Measured values from US8389030B2, “Nematicides from Juglandaceae and methods of use thereof” (Redox Chemicals, Inc., priority 2004, dated 2013).

Tests used:
[1] = system: nematodes in soil; experiment: Orange grove field trial: reduction of nematodes in soil vs untreated soil; format: in vivo; settings: clay loam soil, compared to untreated soil, NatureCur applied 3 times 30 days apart at 5000 ppm, the other agents applied once in mid-May
Description: (§1) A field trial was conducted on an orange grove, comparing the effect of the composition described in Example 1 (under its trade name, NatureCur™) against two widely used, commercially available nematicides, an emusifiable concentrate of 1,3 dichloropropene which can be applied to the soil after plants are planted (called a “post-plant” application) (Dow AgroSciences LLC, Indianapolis, Ind.), shown on the accompanying charts as “Cordon,” and imidacloprid, an insecticide marketed under the name Admire® (Bayer CropScience LP, Research Triangle Park, N.C.). For the soil treated with Cordon and the soil treated with Admire®, single applications of the agents were made in mid-May. The product NatureCur™ was applied in once in mid-May, once 30 days later in mid-June, and once again 30 days later in mid July, each time at a concentration of 5000 ppm. The soil in the grove was a clay loam, a very dense, heavy soil in which it is difficult to get agents to travel. Thus, the soil in this grove provided a particularly difficult test condition for NatureCur™, which has to infiltrate through the soil in water.
Samples were taken of the soil around the plants and of the roots. The percentage of reduction in number of nematodes in soil treated with the three agents compared to untreated soil is shown in Table 1 and FIG. 1.

[2] = system: nematodes in roots; experiment: Orange grove field trial: reduction of nematodes in plant roots vs plants in untreated soil; format: in vivo; settings: clay loam soil, compared to roots of plants in untreated soil, NatureCur applied 3 times 30 days apart at 5000 ppm, the other agents applied once in mid-May
Description: as §1
The percentage of reduction in number of nematodes in roots of plants whose soil was treated with the three agents compared to roots of plants in untreated soil is shown in Table 2 and FIG. 2.

SMILES	Percent reduction in nematodes in soil [1] [%]	Percent reduction in nematodes in roots [2] [%]
ClC=CCCl [1,3 dichloropropene]	58	61
O=[N+]([O-])NC1=NCCN1Cc1ccc(Cl)nc1 [Imidacloprid, imidacloprid]	32	46
